Here are results for five compounds from US20060040871A1, “Bacterial transforming agent” (priority 2003, published 2006).

Assay [1] has as its system MRSA. The assay can be described thus: Antimicrobial plus BTA against recent clinical MRSA isolates (Table 7). The class given is cell-based, Staphylococcus aureus. The source says:
The four clinical isolates were isolated from patients during the first three months of 2003. […] An intermediate MRSA has been included, as methicillin-resistance has been achieved by means other than production of PBP2a.

For assay [2], the system named is VRE. Nature of the assay: Antimicrobial plus BTA against VRE (Table 7). Type of assay: cell-based, enterococci.
Assay [3] deals with MRSA. Nature of the assay: Screening on Isosensitest agar with incorporated BTA and 10 μg methicillin discs. Type of assay: cell-based, Staphylococcus aureus. The procedure:
To find substances related to GBE that might have increased potency, various substances, including those with additional glycine moieties and benzylates, have been screened. Screening was carried out using Isosensitest agar (Oxoid, UK) into which various levels of potential BTAs were incorporated at levels between 0.01 and 1.0%. The agar with incorporated BTA was then used in the manner of a standard antibiotic sensitivity test using 10 μg methicillin discs. The test organism was inoculated onto the agar surface at a concentration suitable to achieve confluent growth after 18 hours incubation at 30° C. After incubation, zone diameters were compared with that achieved by the control plate (Isosensitest alone) for each test organism.

In assay [4] the test system is vancomycin-resistant enterococci (VRE). Nature of the assay: Activity of BTAs against vancomycin-resistant enterococci. Type of assay: cell-based.
In assay [5] the test system is E. faecium. Particulars: cited from earlier work.

As to `Nc1ccc(C(=O)NCC(=O)O)cc1` [Amino-HA, P-Amino Hippuric acid], the Cephalexin (antimicrobial plus BTA; quantity not named, MIC implied) came out at 3 µg/mL in assay [1] (EMRSA-16, +BTA 0.01%); 1 µg/mL in assay [1] (EMRSA-16, +BTA 0.1%); 6 µg/mL in assay [1] (EMRSA-17, +BTA 0.01%); 4 µg/mL in assay [1] (EMRSA-17, +BTA 0.1%); 1.5 µg/mL in assay [1] (I-MRSA, +BTA 0.01%); 0.064 µg/mL in assay [1] (I-MRSA, +BTA 0.1%). Besides, the Oxacillin (antimicrobial plus BTA; quantity not named, MIC implied) in assay [1] (EMRSA-16, +BTA 0.01%) worked out at 3 µg/mL; in assay [1] (EMRSA-16, +BTA 0.1%), 0.75 µg/mL; in assay [1] (EMRSA-17, +BTA 0.01%), 6 µg/mL; in assay [1] (EMRSA-17, +BTA 0.1%), 1 µg/mL; in assay [1] (I-MRSA, +BTA 0.01%), 1.5 µg/mL; in assay [1] (I-MRSA, +BTA 0.1%), 0.064 µg/mL. Besides, the Vancomycin (antimicrobial plus BTA; quantity not named, MIC implied) is 0.25 µg/mL in assay [1] (EMRSA-16, +BTA 0.1%); 0.25 µg/mL in assay [1] (EMRSA-17, +BTA 0.1%); less than 0.25 µg/mL in assay [1] (I-MRSA, +BTA 0.1%); 64 µg/mL in assay [2] (+BTA 0.1%). For the same compound, in assay [3], the “activity relative to Hippuric acid and GBE” value is reported as “improved activity”.

With `CCOC(=O)CNC(=O)CN` [GGEE, Glycylglycine ethyl ester], the Oxacillin (antimicrobial plus BTA; quantity not named, MIC implied) came out at 1.5 µg/mL in assay [1] (EMRSA-16, +BTA 0.01%); 1 µg/mL in assay [1] (EMRSA-16, +BTA 0.1%); 0.75 µg/mL in assay [1] (EMRSA-16, +BTA 1.0%); 3 µg/mL in assay [1] (EMRSA-17, +BTA 0.01%); 2 µg/mL in assay [1] (EMRSA-17, +BTA 0.1%); 1 µg/mL in assay [1] (EMRSA-17, +BTA 1.0%). Besides, the Oxacillin (antimicrobial plus BTA; quantity not named, MIC implied) was 1 µg/mL in assay [1] (I-MRSA, +BTA 0.01%); 0.75 µg/mL in assay [1] (I-MRSA, +BTA 0.1%); 0.32 µg/mL in assay [1] (I-MRSA, +BTA 1.0%). Also, the Cephalexin (antimicrobial plus BTA; quantity not named, MIC implied) in assay [1] (EMRSA-16, +BTA 0.1%) was found to be 1.5 µg/mL; in assay [1] (EMRSA-16, +BTA 1.0%), 0.75 µg/mL; in assay [1] (EMRSA-17, +BTA 0.1%) it was 2 µg/mL; in assay [1] (EMRSA-17, +BTA 1.0%), 1 µg/mL; in assay [1] (I-MRSA, +BTA 0.1%), 0.75 µg/mL; in assay [1] (I-MRSA, +BTA 1.0%), 0.38 µg/mL. In addition, the Vancomycin (antimicrobial plus BTA; quantity not named, MIC implied) is 0.25 µg/mL in assay [1] (EMRSA-16, +BTA 1.0%); 0.25 µg/mL in assay [1] (EMRSA-17, +BTA 1.0%); less than 0.25 µg/mL in assay [1] (I-MRSA, +BTA 1.0%); 64 µg/mL in assay [2] (+BTA 1.0%). For the same compound, the “activity against VRE and MRSA relative to glycylglycine benzyl ester” value in assay [3] (VRE and MRSA) is “greater activity”.

With `C#CCC(N)C(=O)O.C#CCC(N)C(=O)O` (stereo not shown) [PPG, Propargylglycine (2-Amino-4-pentynoic acid)], the Oxacillin (antimicrobial plus BTA; quantity not named, MIC implied) is 4 µg/mL in assay [1] (EMRSA-16, +BTA 0.001%); 1.5 µg/mL in assay [1] (EMRSA-16, +BTA 0.01%); 8 µg/mL in assay [1] (EMRSA-17, +BTA 0.001%); 2 µg/mL in assay [1] (EMRSA-17, +BTA 0.01%); 2 µg/mL in assay [1] (I-MRSA, +BTA 0.001%); 0.125 µg/mL in assay [1] (I-MRSA, +BTA 0.01%). The Cephalexin (antimicrobial plus BTA; quantity not named, MIC implied) came out at 12 µg/mL in assay [1] (EMRSA-16, +BTA 0.01%); 6 µg/mL in assay [1] (EMRSA-17, +BTA 0.01%); 0.125 µg/mL in assay [1] (I-MRSA, +BTA 0.01%). Further, the Vancomycin (antimicrobial plus BTA; quantity not named, MIC implied) is 0.25 µg/mL in assay [1] (EMRSA-16, +BTA 0.01%); 0.25 µg/mL in assay [1] (EMRSA-17, +BTA 0.01%); less than 0.25 µg/mL in assay [1] (I-MRSA, +BTA 0.01%); 64 µg/mL in assay [2] (+BTA 0.01%).

With N-carbamoylglycine (Hydantoic acid), in assay [4], the “activity against vancomycin-resistant enterococci (VRE)” value is listed as “low-level active”.

quinupristin/dalfopristin: the “E. faecium isolates against which active (MIC≦2 mg/L)” value in assay [5] was 86%.
